Reference: paper PMC11490426, “Structure-activity relationship of amino acid analogs to probe the binding pocket of sodium-coupled neutral amino acid transporter SNAT2” (Amino Acids, 2024)
Entries after “also recorded” stand apart in the source; their conditions may differ. Structures can show the parent of a compound that is named as a salt. Where two headings read alike, the source gives them in different places. One block for each compound: values may come before it.

Columns and labels:
SNAT2 [1] = biological target: T1, SNAT2 (Homo sapiens, UniProt Q96QD8); test: Inhibition of SNAT2-mediated 3H-glycine uptake in hyperosmotically treated PC-3 cells; assay type: cell-based; settings: for inhibition of SNAT2-mediated 3H-glycine uptake / affinity for SNAT2: pH 7.4, result in words
T1 construct: hyperosmotically treated PC-3 cells, known to upregulate SNAT2; endogenous in cells; host or cells: PC-3 prostate cells exposed to hyperosmotic medium for 24 h
T1 sequence (Q96QD8 1-506): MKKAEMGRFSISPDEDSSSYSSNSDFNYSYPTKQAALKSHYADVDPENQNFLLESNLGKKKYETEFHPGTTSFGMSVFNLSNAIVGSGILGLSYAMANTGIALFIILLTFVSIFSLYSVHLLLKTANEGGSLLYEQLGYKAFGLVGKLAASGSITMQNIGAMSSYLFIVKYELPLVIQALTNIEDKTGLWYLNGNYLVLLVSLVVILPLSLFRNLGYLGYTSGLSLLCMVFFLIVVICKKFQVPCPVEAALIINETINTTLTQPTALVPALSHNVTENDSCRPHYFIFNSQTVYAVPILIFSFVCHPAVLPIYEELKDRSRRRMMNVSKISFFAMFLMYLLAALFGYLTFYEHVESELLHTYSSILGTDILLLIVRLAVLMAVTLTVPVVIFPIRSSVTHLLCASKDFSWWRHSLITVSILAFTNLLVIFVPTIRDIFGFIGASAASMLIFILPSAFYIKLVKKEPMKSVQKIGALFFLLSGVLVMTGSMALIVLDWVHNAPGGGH
Procedure: Where Y is the % uptake, X is the concentration of the inhibitor, Top and Bottom are the top and bottom plateau respectively, and IC50 is the half maximal inhibitory concentration. These studies were performed in at least 3 independent cell passages (n = 3) and a curve was defined for each independent passage. However, for each compound, the top and bottom were constrained to be the same amongst the different cell passages.

SNAT2 [2] = biological target: T1, SNAT2; test: FLIPR membrane potential (FMP) assay in PC-3 cells; assay type: cell-based; settings: for response in the FMP assay (stimulation of SNAT2 activity) / influence on fluorescence intensity in the FMP assay: result in words; for influence on fluorescence intensity in the FMP assay: 20 mM
Procedure: PC-3 cells exposed to hyperosmotic media for 24 h were used to identify SNAT2 substrates in the FMP assay. The media was aspirated, and the cells were preincubated in HBSS + for 10 min at 37 °C and 220 rpm. Then the buffer was aspirated, and cells were then incubated in 50 µL HBSS + containing 0.55 mg ⋅ mL^− 1 (1x) FMP probe (Blue component A from Molecular Devices, San Jose, CA, USA) for 30 min at 37 °C and 220 rpm. […] First, the baseline was measured for 30 s by measuring each well every 3 s. The plate was then removed from the reader and 50 µL of substrate solutions containing 0.55 mg ⋅ mL^− 1 FMP probe was added. These solutions were prepared by mixing equal parts solution containing 2x FMP probe and solutions containing 4x the final concentration of substrate. […] Following this, the baseline of the next column was measured and followed the same procedure as just described.
For the FMP data, the baseline was defined as the mean fluorescence of the first data point before substrate addition. The baseline of each well was then subtracted from the data point to get the ΔF. Plotting ΔF as a function of time and calculating the area under the curve (AUC) after substrate addition was used as a measure of SNAT2 activity.

SNAT2 [3] = biological target: T1, SNAT2; test: Intracellular amino acids and analogs quantified by OPA derivatization and HPLC-Fl after uptake in PC-3 cells; assay type: cell-based; settings: 30 min uptake; for fold change of intracellular accumulation in absence vs presence of 10 mM L-glutamine: pH 7.4
Procedure: Derivatization of AAs and analogs using o-phthalaldehyde (OPA) and 2-mercaptoethanol (2-ME) to make fluorescent derivatives was used to measure the intracellular amounts of AAs and analogs following uptake in hyperosmotically treated PC-3 cells. Before starting the experiment, the medium was aspirated, and the cells were preincubated in HBSS + for 15 min at 37 °C and 220 rpm. The cells were then incubated with 500 µL HBSS+ (background) or HBSS + containing AAs or analogs at given concentrations for 30 min at 37 °C and 220 rpm. After aspirating the donor solutions, the cells were washed thrice with 500 µL of ice-cold PBS while keeping the cells on ice. 200 µL of ice-cold 1x-trypsin was added to each well and allowed to distribute for 20–30 min while keeping the cells on ice. The plate was then transferred to an incubating microplate shaker at 37 °C and 220 rpm for about 8 min or until the cells had detached. 300 µL of ice-cold PBS was added to each well to resuspend the cells and transfer them to centrifuge tubes. The cells were centrifuged at 1000 G for 5 min (4 °C), the supernatant was removed, the cells were resuspended in 300 µL ice-cold PBS, and then centrifuged again at 1000 G for 5 min (4 °C). After removing the supernatant, the cell pellet was lysed by adding 100 µL of 80% methanol (20% ultrapure water) and placing the tubes in an ultrasonic bath for 10 min. The tubes were then centrifuged at 15,000 G for 15 min (4 °C) and the resulting supernatant was used for analysis.
The OPA reagent was prepared by spiking with 2 µL 2-ME per mL of OPA regent and was considered stable for use within one day. 10 µL of the cell samples or standards containing a mixture of the AAs and analogs of interest were placed in HPLC vials with 100 µL inserts. […] The autosampler kept the samples at 10 °C and the pretreatment function was used to automatically mix the samples with 10 µL of the OPA reagent and wait 4 min before loading 2 µL onto a YMC-Triart C18 column (75 × 3.0 mm, 1.9 μm, Mikrolab Aarhus, Viby J, Denmark). […] The fluorescence detector was set to excite at 350 nm and detect at 450 nm.
The resulting chromatograms were integrated and the area under the curve (AUC) of the standard samples was used to generate standard curves to determine the concentration of AAs and analogs in the cell samples. […] Amino acid levels detected in the background cell samples were subtracted from the other cell samples.

SNAT2 [4] = biological target: T1, SNAT2; test: FLIPR membrane potential (FMP) assay in PC-3 cells; assay type: cell-based; settings: isoosmotically treated PC-3 cells
SNAT2 [5] = biological target: T1, SNAT2; parameters: method as in Jakobsen et al. [2023]; Nielsen et al. [2022]; settings: hyperosmotically treated PC-3 cells; ref Jakobsen et al. [2023]; Nielsen et al. [2022]; cited from earlier work
[6] = hyperosmotically treated PC-3 cells
[7] = hyperosmotically treated PC-3 cells, 5 min uptake of 11.1 nM 3H-glycine, pH 7.4, read-out: IC50
[8] = 10 mM compound, hyperosmotically treated PC-3 cells
[9] = 20 mM compound, hyperosmotically treated PC-3 cells
[10] = 3 mM compound, hyperosmotically treated PC-3 cells

Structure (SMILES): O=C(O)c1ccccn1 [picolinic acid]
Hill slope of concentration-response curve (SNAT2 [1]; [6]): -4.2
IC50 (SNAT2 [1]; [7]): 5600 µM

Structure (SMILES): N=C(N)NCCC[C@H](N)C(=O)O [L-Arginine, L-arginine hydrochloride]
AUC of fluorescence response-time curve (SNAT2 [2]; [9]): -0.97 ± 0.3 10^5 RFU ∙ s
AUC, % of 10 mM L-alanine (SNAT2 [2]; [9]): -4.4 ± 1.2%
influence on fluorescence intensity in the FMP assay (SNAT2 [2]): little influence on the fluorescence intensity

Structure (SMILES): O=C(O)[C@@H]1C[C@@H](O)CN1 [trans-4-Hydroxy-L-proline, trans-4-hydroxy-L-proline]
IC50 (SNAT2 [1]): 3500 µM

Structure (SMILES): O=C(O)[C@@H]1CCN1 [L-Azetidine-2-carboxylic acid, L-azetidine-2-carboxylic acid]
IC50 (SNAT2 [1]): 660 µM

Structure (SMILES): O=C(O)[C@@H]1CCCN1 [L-Proline, L-proline]
IC50 (SNAT2 [1]; [7]): 640 µM

Structure (SMILES): NCC(=O)O [Glycine, glycine]
IC50 (SNAT2 [1]; [7]): 520 µM
pIC50 ± SEM (SNAT2 [1]; hyperosmotically treated PC-3 cells, -log transformed IC50): [3.3 ± 0.11]

Structure (SMILES): O=C(O)[C@@H]1CCCCN1 [L-Pipecolinic acid, L-pipecolinic acid]
AUC of fluorescence response-time curve (SNAT2 [2]; [8]): 18.1 ± 0.2 10^5 RFU ∙ s
AUC, % of 10 mM L-alanine (SNAT2 [2]; [8]): 81.9 ± 0.8%
response in the FMP assay (stimulation of SNAT2 activity) (SNAT2 [2]; [6]): substrates of SNAT2
IC50 (SNAT2 [1]; [7]): 2900 µM

Structure (SMILES): N[C@@H](CCC(=O)OCc1ccccc1)C(=O)O [γ-Benzyl L-glutamate, γ-benzyl L-glutamate]
AUC of fluorescence response-time curve (SNAT2 [2]; [10]): 1.7 ± 0.4 10^5 RFU ∙ s
AUC, % of 10 mM L-alanine (SNAT2 [2]; [10]): 7.8 ± 1.9%
response in the FMP assay (stimulation of SNAT2 activity) (SNAT2 [2]; [6]): little or no stimulation of SNAT2 activity
fold change of intracellular accumulation in absence vs presence of 10 mM L-glutamine (SNAT2 [3]; 0.7 mM compound): 5.4 fold
level of intracellular accumulation (SNAT2 [3]; result in words): relatively low accumulation
IC50 (SNAT2 [1]; [7]): 680 µM

Structure (SMILES): CC(=O)C(C)N.Cl (centres unmarked) [3-aminobutan-2-one, 3-Aminobutan-2-one hydrochloride]
inhibition of SNAT2-mediated 3H-glycine uptake / affinity for SNAT2 (SNAT2 [1]; [6]): retains some affinity for SNAT2

Structure (SMILES): Cl.NCC(N)=O [glycinamide, glycinamide hydrochloride]
inhibition of SNAT2-mediated 3H-glycine uptake / affinity for SNAT2 (SNAT2 [1]; [6]): potency is lost

Structure (SMILES): N[C@@H](CCC(=O)O)C(=O)O [L-glutamate, L-glutamic acid]
inhibition of SNAT2-mediated 3H-glycine uptake / affinity for SNAT2 (SNAT2 [1]; [6]): limited affinity

Structure (SMILES): NCCS(=O)(=O)O [Taurine, taurine]
AUC of fluorescence response-time curve (SNAT2 [2]; [9]): -1.0 ± 0.2 10^5 RFU ∙ s
AUC, % of 10 mM L-alanine (SNAT2 [2]; [9]): -4.7 ± 0.7%
influence on fluorescence intensity in the FMP assay (SNAT2 [2]): did not lead to an increase in fluorescence; also recorded: little influence on the fluorescence intensity

The next lines start with results.

AUC of fluorescence response-time curve (SNAT2 [2]; [8]): 24.4 ± 1.3 10^5 RFU ∙ s
AUC, % of 10 mM L-alanine (SNAT2 [2]; [8]): 110.4 ± 6.1%
response in the FMP assay (stimulation of SNAT2 activity) (SNAT2 [2]; [6]): substrates of SNAT2
Structure (SMILES): CCCC[C@H](N)C(=O)O [L-Norleucine, L-norleucine]

IC50 (SNAT2 [1]; [7]): 710 µM
Structure (SMILES): CNCC(=O)O [Sarcosine, sarcosine]

inhibition of SNAT2-mediated 3H-glycine uptake / affinity for SNAT2 (SNAT2 [1]; [6]): limited affinity
Structure (SMILES): NCCCC[C@H](N)C(=O)O [L-lysine, L-lysine monohydrochloride]

AUC of fluorescence response-time curve (SNAT2 [2]; [8]): 23.5 ± 0.8 10^5 RFU ∙ s
AUC, % of 10 mM L-alanine (SNAT2 [2]; [8]): 106.6 ± 3.8%
response in the FMP assay (stimulation of SNAT2 activity) (SNAT2 [2]; [6]): substrates of SNAT2
IC50 (SNAT2 [1]; [7]): 330 µM
Structure (SMILES): COC(=O)[C@H](C)N [L-Alanine methyl ester, L-alanine methyl ester hydrochloride]

IC50 (SNAT2 [1]; [7]): 23000 µM
IC50 (SNAT2 [1]; hyperosmotically treated PC-3 cells, -log transformed IC50, read-out: pIC50 ± SEM (converted)): 25100 µM
Structure (SMILES): CN(C)CC(=O)O [N,N-Dimethylglycine, N,N-dimethylglycine hydrochloride]

inhibition of SNAT2-mediated 3H-glycine uptake / affinity for SNAT2 (SNAT2 [1]; [6]): relatively poor at inhibiting SNAT2
Structure (SMILES): N[C@@H](Cc1ccccc1)C(=O)O [L-phenylalanine]

IC50 (SNAT2 [1]; [7]): 4100 µM
Structure (SMILES): C[C@H](N)C(=O)OC(C)(C)C [L-Alanine tert-butyl ester, L-alanine tert-butyl ester hydrochloride]

AUC of fluorescence response-time curve (SNAT2 [2]; [8]): 21.1 ± 0.6 10^5 RFU ∙ s
AUC, % of 10 mM L-alanine (SNAT2 [2]; [8]): 95.4 ± 2.5%
response in the FMP assay (stimulation of SNAT2 activity) (SNAT2 [2]; [6]): substrates of SNAT2
IC50 (SNAT2 [1]; [7]): 420 µM
Structure (SMILES): CCOC(=O)[C@H](C)N [L-Alanine ethyl ester, L-alanine ethyl ester hydrochloride]

AUC of fluorescence response-time curve (SNAT2 [2]; [8]): 24 ± 0.9 10^5 RFU ∙ s
AUC, % of 10 mM L-alanine (SNAT2 [2]; [8]): 108.6 ± 4.2%
fold change of intracellular accumulation in absence vs presence of 10 mM L-glutamine (SNAT2 [3]; 0.45 mM compound): 4.1 fold
IC50 (SNAT2 [1]; [7]): 460 µM
Structure (SMILES): N[C@@H](CO)C(=O)O [L-Serine, L-serine]

AUC of fluorescence response-time curve (SNAT2 [2]; [8]): 25.9 ± 1.4 10^5 RFU ∙ s
AUC, % of 10 mM L-alanine (SNAT2 [2]; [8]): 117.5 ± 6.2%
response in the FMP assay (stimulation of SNAT2 activity) (SNAT2 [2]; [6]): substrates of SNAT2
IC50 (SNAT2 [1]; [7]): 250 µM
Structure (SMILES): N[C@@H](CCO)C(=O)O [L-Homoserine, L-homoserine]

inhibition of SNAT2-mediated 3H-glycine uptake / affinity for SNAT2 (SNAT2 [1]; [6]): relatively poor at inhibiting SNAT2
Structure (SMILES): N[C@H](C(=O)O)c1ccc(O)cc1 [oxfenicine, Oxfenicine]

EC50 (SNAT2 [4]): 138 µM
AUC of fluorescence response-time curve (SNAT2 [2]; [8]): 22.1 ± 0.9 10^5 RFU ∙ s
AUC, % of 10 mM L-alanine (SNAT2 [2]; [8]): 100 ± 3.9%
EC50 (SNAT2 [2]; [6]): 245 µM
IC50 (SNAT2 [1]; [7]): 170 µM
Structure (SMILES): C[C@H](N)C(=O)O [L-Alanine, L-alanine]
inhibition of 3H-glycine uptake at different pH levels (SNAT2 [1]; pH 6.8, 7.4 and 8.0, 0.4 mM L-alanine benzyl ester or 0.2 mM L-alanine, two-way ANOVA): no significant differences in inhibition at the different pH levels

AUC of fluorescence response-time curve (SNAT2 [2]; [10]): 21.9 ± 0.5 10^5 RFU ∙ s
AUC, % of 10 mM L-alanine (SNAT2 [2]; [10]): 99.2 ± 2.4%
response in the FMP assay (stimulation of SNAT2 activity) (SNAT2 [2]; [6]): substrates of SNAT2
IC50 (SNAT2 [1]; [7]): 630 µM
Structure (SMILES): N[C@@H](CC1CCCCC1)C(=O)O [3-Cyclohexyl-L-alanine, 3-cyclohexyl-L-alanine]

IC50 (SNAT2 [1]; [7]): 6600 µM
Structure (SMILES): C[N+](C)(C)CC(=O)O [Betaine, betaine]
reduction of 3H-glycine uptake (SNAT2 [5]): ~86%

inhibition of SNAT2-mediated 3H-glycine uptake / affinity for SNAT2 (SNAT2 [1]; [6]): potency is lost
Structure (SMILES): C[C@H](N)CO [L-alaninol]
